3 compounds from publication PMC11106739, “Discovery and Derivatization of Tridecaptin Antibiotics with Altered Host Specificity and Enhanced Bioactivity” (ACS Chemical Biology, 2024) can be followed below.

Converted amounts (≈) assume the structure as drawn. Where a SMILES comes first, the peptide text is derived from it. [ ]: non-standard residue; d: D form. The star is where a group is joined. d(aIle) = CC[C@H](C)[C@@H](N)C(=O)O; dDab = NCC[C@@H](N)C(=O)O; Octanoyl = CCCCCCCC(=O)*; Dab = NCC[C@H](N)C(=O)O

For experiment [1], the system named is S. aureus 1126387. Type of experiment: cell-based, Staphylococcus aureus. Conditions: 1126387, 20 h. The protocol: (§1) All minimum inhibitory concentrations (MICs) were determined according to the Clinical and Standards Laboratory Institute (CLSI) guidelines. In brief, agar plates were inoculated from glycerol stocks and incubated overnight at 35 °C. Peptide DMSO stocks were dispensed into 96-well round-bottom plates using a TECAN D300e dispenser. Colistin sulfate (Sigma-Aldrich) was dissolved in water and serially diluted in a cation-adjusted Mueller Hinton broth (10 μL per well). Final concentrations of the test compounds were 0.06 to 64 μg/mL. Inocula were prepared by direct colony suspension in NaCl at 0.5 MacFarland, which was further diluted 200-fold in cation-adjusted Mueller Hinton broth for a target inoculum of 2 × 10^5 colony forming units (CFUs)/mL. 100 μL portion of the prepared inoculum was added to each well of the prepared plates containing the test compounds. Plates were sealed with parafilm and incubated for 20 h at 35 °C. Images of all plates were recorded, and MIC was assessed visually.

In experiment [2] the test system is S. aureus ATCC 29213. It is filed as cell-based, Staphylococcus aureus. Conditions: ATCC 29213, 20 h. The protocol: as §1
Experiment [3] relates to S. aureus UAMS-1625. It is filed as cell-based, Staphylococcus aureus. Conditions: S. aureus UAMS-1625 (BV18); CLSI broth dilution, cation-adjusted Mueller Hinton broth, 20 h, 35 °C, read visually. The protocol: as §1
The subject of experiment [4] is HepG2 cells. As to the kind of experiment: Cytotoxicity determination (CellTiter-Glo). It is filed as cell-based. Conditions: HepG2, medium without serum, 24 h, normalization to the untreated control, 1 to 128 μg/mL tested. The protocol:
HepG2 cells were grown in EMEM (Sigma) supplemented with 2 mM glutamine and 10% fetal bovine serum (Fisher) at 37 °C, 5% CO2. 20′000 cells per well were seeded into clear tissue culture-treated 96-well plates and incubated for 24 h. Peptides, dissolved in DMSO, were dispensed into 96 deep well plates (TECAN D300e dispenser) and diluted to a final concentration of 1 to 128 μg/mL using fresh medium without serum. The next day, the old media were removed from the cells, and 200 μL of the prepared compound dilutions was added per well. Plates were incubated for another 24 h before assessing the cell viability using the CellTiter-Glo kit (Promega) according to the manufacturer’s protocol. IC50s were calculated after normalization to the untreated control.

The subject of experiment [5] is Gram-negative ESKAPE pathogens. It is filed as cell-based. The following applies: 20 h. The protocol:
as §1

For experiment [6], the system named is E. coli 1220120. It is filed as cell-based, Escherichia coli. The following applies: 1220120, 20 h. The protocol: as §1
Experiment [7] has as its system E. coli 1214245. It is filed as cell-based, Escherichia coli. The following applies: 1214245, 20 h. The protocol:
as §1

Experiment [8] concerns E. coli ATCC 25922. Type of experiment: cell-based, Escherichia coli. Conditions: ATCC 25922, 20 h. The protocol:
as §1

Experiment [9] relates to Gram-positive bacteria (Staphylococcus aureus, Enterococcus faecalis, Enterococcus faecium). As to the kind of experiment: MIC, summary over Gram-positive strains. It is filed as cell-based. Conditions: at a concentration of 64 μg/mL; summary of Table 2. The protocol: as §1
Experiment [10] concerns P. aeruginosa 1218019. Type of experiment: cell-based, Pseudomonas aeruginosa. The following applies: 1218019, 20 h. The protocol:
as §1

Experiment [11] concerns P. aeruginosa 1226072. It is filed as cell-based, Pseudomonas aeruginosa. Conditions: 1226072, 20 h. The protocol:
as §1

Experiment [12] relates to P. aeruginosa PAO1. It is filed as cell-based, Pseudomonas aeruginosa. Conditions: PAO1, 20 h. The protocol: as §1
Experiment [13] concerns ATCC 25922. It is filed as cell-based, Enterococcus faecalis. Conditions: ATCC 25922, 20 h. The protocol:
as §1

Experiment [14] deals with E. faecalis ATCC 29212. Type of experiment: cell-based, Enterococcus faecalis. Conditions: ATCC 29212, 20 h. The protocol: as §1
For experiment [15], the system named is A. baumannii IHMA 777621. It is filed as cell-based, Acinetobacter baumannii. The following applies: IHMA 777621, 20 h. The protocol:
as §1

Experiment [16] has as its system A. baumannii ATCC 17978. It is filed as cell-based, Acinetobacter baumannii. The following applies: ATCC 17978, 20 h. The protocol:
as §1

For experiment [17], the system named is A. baumannii HUMC1. It is filed as cell-based, Acinetobacter baumannii. The following applies: HUMC1, 20 h. The protocol:
as §1

Experiment [18] has as its system Rabbit red blood cells. As to the kind of experiment: Hemolysis assay. It is filed as cell-based. Conditions: rabbit red blood cells in PBS, 37 °C, 1 h, absorbance at 405 nm, normalization to the Triton X-100 control; 0.25 to 128 μg/mL tested. The protocol:
Peptides, dissolved in DMSO, were dispensed into 96-well round-bottom microplates using a TECAN D300e dispenser and subsequently diluted with 100 μL of PBS. PBS or 2% Triton X-100 was used as negative and positive controls, respectively. Rabbit red blood cells (BioConcept) were diluted in PBS to a final concentration of 2%, and 100 μL was added to each well of the prepared 96-well plates. The final concentration of the test compounds was 0.25 to 128 μg/mL. Plates were incubated at 37 °C for 1 h and afterward subjected to centrifugation at 1000g for 5 min. Then, 30 μL of supernatant was transferred to a new round-bottom plate, and absorbance was measured at 405 nm (TECAN Infinite F200). EC50s were calculated after blank subtraction and normalization to the Triton control.

Experiment [19] deals with E. faecium IHMA 890472. It is filed as cell-based, Enterococcus faecium. The following applies: IHMA 890472, 20 h. The protocol:
as §1

Experiment [20] relates to E. faecium ATCC 51559. It is filed as cell-based, Enterococcus faecium. The following applies: ATCC 51559, 20 h. The protocol: as §1
The subject of experiment [21] is K. pneumoniae 1228586. Type of experiment: cell-based, Klebsiella pneumoniae. The following applies: 1228586, 20 h. The protocol: as §1
In experiment [22] the test system is K. pneumoniae 1227947. It is filed as cell-based, Klebsiella pneumoniae. Conditions: 1227947, 20 h. The protocol: as §1
Experiment [23] deals with K. pneumoniae ATCC 13883. It is filed as cell-based, Klebsiella pneumoniae. Conditions: ATCC 13883, 20 h. The protocol:
as §1

For the compound `CCCCCCCC(=O)N[C@@H](C(=O)N[C@H](CCN)C(=O)NCC(=O)N[C@H](CO)C(=O)N[C@H](Cc1c[nH]c2ccccc12)C(=O)N[C@@H](CO)C(=O)N[C@@H](CCN)C(=O)N[C@H](CCN)C(=O)N[C@@H](CCC(=O)O)C(=O)N[C@@H](CCC(=O)O)C(=O)N[C@H](C(=O)N[C@@H](C(=O)N[C@@H](C)C(=O)O)[C@@H](C)CC)C(C)C)C(C)C` [Oct-Glu9] (Octanoyl-[dV][dDab]G[dS][dW]S[Dab][dDab]EEV[d(aIle)]A-OH), the MIC is over 64 µg/mL in experiment [1]; over 64 µg/mL in [2]; over 64 µg/mL in [3]; 64 µg/mL (≈ 42.6 µM) in [6]; over 64 µg/mL in experiment [7]; over 64 µg/mL in experiment [8]. For the same compound, the minimal inhibitory concentration (MIC) in [10], in [11], in [12], in experiment [13], in [14] and in experiment [15] was over 64 µg/mL in each case. The MIC in [16], in [17], in [19], in [20], in experiment [21] and in experiment [22] was over 64 µg/mL each time. This compound also came in with an MIC in experiment [23] of over 64 µg/mL. Also, in experiment [4], the “IC50 on HepG2 w/o FCS” value is over 128 µg/mL. Also, the “MICs, range over Gram-negative pathogens” value in experiment [5] lay in the range of 8 to 64 µg/mL. In addition, in [9], the “antibacterial activity against Gram-positive bacteria” value (“antibacterial activity” below) is “no antibacterial activity”. Further, the “Hemolysis EC50” value in experiment [18] was over 128 µg/mL.
For `CCCCCCCC(=O)N[C@@H](C(=O)N[C@H](CCN)C(=O)NCC(=O)N[C@H](CO)C(=O)N[C@H](Cc1c[nH]c2ccccc12)C(=O)N[C@@H](CO)C(=O)N[C@@H](CCN)C(=O)N[C@H](CCN)C(=O)N[C@@H](CO)C(=O)N[C@@H](CCC(=O)O)C(=O)N[C@H](C(=O)N[C@@H](C(=O)N[C@@H](C)C(=O)O)[C@@H](C)CC)C(C)C)C(C)C` [Oct-Ser9] (Octanoyl-[dV][dDab]G[dS][dW]S[Dab][dDab]SEV[d(aIle)]A-OH), the minimal inhibitory concentration (MIC) was over 64 µg/mL in experiment [1]; over 64 µg/mL in experiment [2]; over 64 µg/mL in experiment [3]; 32 µg/mL (≈ 21.9 µM) in experiment [6]; 64 µg/mL (≈ 43.8 µM) in experiment [7]; 32 µg/mL (≈ 21.9 µM) in experiment [8]. The MIC in [10] is 32 µg/mL (≈ 21.9 µM); in [11], 32 µg/mL (≈ 21.9 µM); in experiment [12], over 64 µg/mL; in experiment [13] it was over 64 µg/mL; in experiment [14] it was over 64 µg/mL; in experiment [15], over 64 µg/mL. Also, the MIC in [16] was over 64 µg/mL; in experiment [17], over 64 µg/mL; in experiment [19] it was over 64 µg/mL; in experiment [20], over 64 µg/mL; in [21] it was 8 µg/mL (≈ 5.48 µM); in [22], over 64 µg/mL. The compound further gave a minimum inhibitory concentration (MIC) in experiment [23] of 64 µg/mL (≈ 43.8 µM). Moreover, the “IC50 on HepG2 w/o FCS” value in [4] was over 128 µg/mL. Further, the “MICs, range over Gram-negative pathogens” value in [5] fell in the range of 8 to 64 µg/mL. For the same compound, the “antibacterial activity” value in [9] is listed as “no antibacterial activity”. Besides, in [18], the “Hemolysis EC50” value is over 128 µg/mL.
In the case of `CCCCCCCC(=O)N[C@@H](C(=O)N[C@H](CCN)C(=O)NCC(=O)N[C@H](CO)C(=O)N[C@H](Cc1c[nH]c2ccccc12)C(=O)N[C@@H](CO)C(=O)N[C@@H](CCN)C(=O)N[C@H](CCN)C(=O)N[C@@H](C)C(=O)N[C@@H](CCC(=O)O)C(=O)N[C@H](C(=O)N[C@@H](C(=O)N[C@@H](C)C(=O)O)[C@@H](C)CC)C(C)C)C(C)C` [Oct-Ala9] (Octanoyl-[dV][dDab]G[dS][dW]S[Dab][dDab]AEV[d(aIle)]A-OH), the minimum inhibitory concentration (MIC) in [1] is over 64 µg/mL; in experiment [2], over 64 µg/mL; in [3] it was over 64 µg/mL; in [6] it was 8 µg/mL (≈ 5.54 µM); in [7], 16 µg/mL (≈ 11.1 µM); in experiment [8], 16 µg/mL (≈ 11.1 µM). Also, the minimum inhibitory concentration (MIC) in experiment [10] was over 64 µg/mL; in experiment [11], 32 µg/mL (≈ 22.1 µM); in experiment [12], 64 µg/mL (≈ 44.3 µM); in experiment [13] it was over 64 µg/mL; in experiment [14], over 64 µg/mL; in [15] it was over 64 µg/mL. Moreover, the MIC was over 64 µg/mL in experiment [16]; over 64 µg/mL in experiment [17]; over 64 µg/mL in experiment [19]; over 64 µg/mL in experiment [20]; 8 µg/mL (≈ 5.54 µM) in experiment [21]; 16 µg/mL (≈ 11.1 µM) in experiment [22]. The compound also returned a minimal inhibitory concentration (MIC) in [23] of 8 µg/mL (≈ 5.54 µM). In addition, the “IC50 on HepG2 w/o FCS” value in experiment [4] is over 128 µg/mL. For the same compound, the “MICs, range over Gram-negative pathogens” value in [5] is 8 to 64 µg/mL. Also, the “antibacterial activity” value in [9] was “no antibacterial activity”. The “Hemolysis EC50” value in [18] is over 128 µg/mL.
